The values below come from patent publication US20150352131A1, “Compositions and Methods for the Prevention and Treatment of Osteolysis and Osteoporosis” (RHODE ISLAND HOSPITAL, priority 2013, published 2015).

The conditions of data set [1]: orthopedic implant; cited from earlier work.
For data set [2] the following is noted: mice given NSC-87877, cited from earlier work.
The next data set deals with prostate cancer. Particulars: delivered as loaded nanoparticles conjugated to T cells; cited from earlier work.
Another data set has as its system osteoclasts. Put plainly: Pit assay, osteoclast-mediated bone resorption on dentin slices. The data set is classed as cell-based, mice. The source says:
TRAP staining was used to identify multinucleated osteoclasts in osteoclastogenic cell cultures or tibia section. Briefly, tibia from control and Shp2 mutant mice were fixed in 4% paraformaldehyde overnight and then decalcified in EDTA solution (14%) till bone tissue was soft. The specimens were then dehydrated according standard procedures and embedded for sectioning. TRAP^+ multinucleated osteoclasts (>3 nuclei) were quantified with the use of a Nikon digital microscope. Osteoclast-mediated bone resorptive activity was quantified using the pit assay (Xu D, et al. (2004) Biochemical Journal 383(Pt 2):219-225). Ethanol-sterilized slices of bovine bone were disposed in individual wells of a 48 well/plate with 1 mL osteoclast culture medium containing 2.5×10^4 BM macrophages (BMM) per well. After 8 to 10 days, all cellular components were removed from bone slices with a brief (10 minute) treatment with 5% sodium hypochlorite. […] The effect of Shp2 inhibition on osteoclast-mediated bone resorption was also studied in order to further test whether pharmacological inhibition of Shp2 could serve as a treatment modality. BMM were cultured on dentin slices in osteoclast medium and in the presence or absence of Shp2 inhibitor NSC-87877 (50 μM) (FIGS. 10A-B).

Data set [3] deals with osteoclastogenic genes c-Fos, Nfatc1, MMP9, Trap, and Ctsk in bone marrow derived macrophages (BMM). Put plainly: qRT-PCR of osteoclastogenic gene expression in BMM induced by polyethylene or titanium particles. The data set is classed as cell-based, mice. The following applies: BMM with PeP or TiP, NSC87877 50 uM, 5 days of culture, normalized to GAPDH. As to the method: The average size of PeP and TiP is about […] in diameter (FIGS. 8A-B), within the range of orthopedic implant debris size; these particles can be efficiently engulfed by BMM and trigger their osteoclastogenic differentiation (FIGS. 8C-D). 5×10^5 BMM were cultured in BMM medium containing about 2×10^6 of PeP or TiP in the presence or absence of Shp2 inhibitor NSC87877 (50 uM). BMM cultured in osteoclast media (DMEM supplemented with 10% FCS, 10 ng/mL M-CSF, and 100 ng/mL RANKL) were used as a positive control. Total RNA was extracted from BMM after 5 days of culture using RNeasy mini kit (Qiagen, Valencia, Calif.). cDNA was synthesized using 1 μg total RNA with iSCRIPT™ cDNA Synthesis Kit (Bio-Rad, Hercules, Calif.) and q-PCR was performed with RT2SYBR® Green qPCR kit (Bio-Rad) on a CFX384 real-time PCR machine. Osteoclastogenic gene expressions in BMM were measured and normalized to Glyceraldehyde 3-phosphate dehydrogenase (GAPDH); their levels were then compared between NSC87877 treated and untreated groups.

Data set [4] deals with BM-derived pre-osteoclast cultures (wild type bone marrow cells). Put plainly: TRAP staining of multinucleated osteoclasts in ex vivo osteoclast culture. It counts as cell-based, mice. Particulars: FIG. 5: NSC-87877 50 nM, Aldronates 25 nM, or combination. The protocol:
Whole bone marrow (BM) was flushed from the explanted femurs and tibiae of euthanized mice with DMEM (Invitrogen, N.Y), and centrifuged at 1,500 rpm for 5 minutes. The pelletized cells were resuspended in red blood cell (RBC) lysis buffer, re-centrifuged at 1,500 rpm for 5 minutes, and then cultured in macrophage medium (DMEM supplemented with 10% FBS, 1% penicillin/streptomycin, and 10 ng/mL M-CSF) at 37° C. and 5% CO2 for 3 days (Tanaka S, et al. (1993) J Clin Invest 91(1):257-63) in either 100 mm tissue culture dishes, 4-well or 8-well chamber slides, or 48-well or 96-well tissue culture plates. The medium was changed every other day. To induce osteoclastogenic differentiation, BM cells cultured for 3 days in macrophage medium were further cultured for 5-7 days in osteoclast differentiation medium (DMEM supplemented with 10% FCS, 10 ng/mL M-CSF, and 100 ng/mL RANKL) (McHugh K P, et al. (2000) J Clin Invest 105(4):433-40; Zou W, et al. (2008) Mol Cell 31(3):422-31). These BM-derived osteoclasts were primarily used for the various assays in this study. […] TRAP^+ multinucleated osteoclasts (>3 nuclei) were quantified with the use of a Nikon digital microscope. Osteoclast-mediated bone resorptive activity was quantified using the pit assay (Xu D, et al. (2004) Biochemical Journal 383(Pt 2):219-225). […]

“Also recorded” adds a separate entry of the source. Where two headings read alike, the source gives them in different places.

With `NCCCC(O)(P(=O)(O)O)P(=O)(O)O` [Alendronate], the “bone ongrowth and shear strength” value in data set [1] is “increase”.

Turning to `O=S(=O)(O)c1ccc2cc(/N=N/c3cc(S(=O)(=O)O)c4cccnc4c3O)ccc2c1` [NSC87877], the figures for the “toxicity in vivo (death versus control-treated or untreated mice)” value in data set [2] and in data set [2] (listed as NSC 87877) were “did not die significantly sooner” and “lack of toxicity”, respectively. Besides, in the data set on prostate cancer, the tumor burden entry is on record as “effective in reducing tumor burden”. Moreover, the “osteoclast-mediated bone resorption (pits formed on dentin slices)” value with osteoclasts (BMM from wild type mice in osteoclast medium, NSC-87877 50 μM, 10 days) is “formed only a few small pits; also recorded: markedly reduced”. For the same molecule, in the data set with osteoclasts (co-cultured 10 days on dentin slices, FIG. 5: NSC-87877 50 nM, Aldronates 25 nM, or combination), the “ability to resorb bone matrix (pits on dentin slices)” value is listed as “inhibited”. For the same molecule, the “expression of osteoclastogenic marker genes” value in data set [3] was “significantly inhibited”. The “number of osteoclasts (formation of TRAP+ multinucleated osteoclasts)” value in data set [4] is “inhibited”.
